Measured values from article PMC8296573, “Synthesis and Biological Evaluation of Fingolimod Derivatives as Antibacterial Agents” (ACS Omega, 2021).
≈ marks a conversion by molar mass, not a printed value. Read-outs that look alike come from different tables or passages of the source.

How the values were obtained:
S. aureus ATCC 12598 = experiment: Antibacterial activity, pre-exposure; type: cell-based, Staphylococcus aureus; conditions: for Average inhibition %, biofilms biomass / Average inhibition %, biofilms viability / Average inhibition %, planktonic cells turbidity / Average inhibition %, planktonic cells viability / inhibition at 5 µM / inhibition at 10 µM / inhibition at 15 µM / inhibition at 25 µM: S. aureus ATCC 12598, pre-exposure, ± SD; for inhibition at 5 µM / inhibition at 10 µM / inhibition at 15 µM / inhibition at 25 µM / MIC: Staphylococcus aureus, ATCC12598
Summary of the method: (§1)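 Pre-exposure format: compound and bacterial culture co-incubated 18 h, 37 °C, aerobic, 220 rpm. Planktonic: turbidity (OD) plus resazurin viability, 20 μM final. Biofilm: PBS wash, 20 μM resazurin, then ethanol fixation and crystal violet staining, A595.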

S. aureus P2 = experiment: Antibacterial activity, pre-exposure; type: cell-based, Staphylococcus aureus; conditions: for Average inhibition %, biofilms biomass / Average inhibition %, biofilms viability / Average inhibition %, planktonic cells turbidity / Average inhibition %, planktonic cells viability / inhibition at 5 µM / inhibition at 10 µM / inhibition at 15 µM / inhibition at 25 µM: S. aureus P2, pre-exposure, ± SD
Summary of the method: as §1

[1] = Colloidal aggregation by nephelometry; type: physicochemical; conditions: 25 µM
Method: 3. Aggregation data (Figure S3)
Potential colloidal aggregation in biological assays was studied at five concentrations (5 µM, 10 µM, 15 µM,
25 µM, 50 µM). The original assay conditions were simulated, and the light scattering of potential aggregates
in the mixture was studied by nephelometric methods using Nepheloskan Ascent (Labsystems, Finland).
Aggregation of the blank and compounds fingolimod, 43, 45, 55, 62, 79 and 82 were measured as triplicates
from one independent experiment at 400 V and at room temperature.
formation at 50 µM. […] However, at 15
µM, 10 µM and 5 µM, the obtained values were close to those observed by blank, therefore indicating only
minor or no detectable aggregation.
Figure S3: Aggregation data for fingolimod and compounds 43, 45, 55, 62, 79, 82. RNU = relative nephelometric unit.
The data are shown as the mean ± SD and normalized to the blank.
(1 picture or pasted object on this page, not shown here)

[2] = Cytotoxicity, resazurin staining assay; type: cell-based, human; conditions: human, 24 h incubation
Method: The cytotoxicity of the compounds was assessed on the three different human cell lines, A549, HEp-2, and HL-60, using the redox-based resazurin staining assay. The cells were seeded in clear 96-well plates at a density of 1 × 10^4 cells per well in a volume of 200 μL per well. The adherent cells were let to attach for 24 h before changing the media and adding the compounds (final concentration of 0.25% DMSO). HL-60 were counted and added to the plates at a density of 1 × 10^4 cells per well in a volume of 200 μL directly with the compounds. Untreated cells were used as negative controls, and cells treated with 1% TritonX-100 (Sigma-Aldrich, St. Louis, MO) were used as positive controls for cytotoxicity. The cells were incubated with the compounds for 24 h.
For the resazurin assay, the media was first removed, and the adherent cells were washed once with PBS. Then, 200 μL of 20 μM resazurin was added per well and cells were incubated for two more hours before the measurement of fluorescence, as mentioned earlier. For HL-60, 10 μL of 400 μM resazurin was added directly to the wells and the cells were incubated for an additional 4 h before the measurement of fluorescence.

| Compound | Average inhibition %, biofilms viability (S. aureus ATCC 12598; 5 µM) [%] | Average inhibition %, planktonic cells viability (S. aureus ATCC 12598; 5 µM) [%] | Average inhibition %, biofilms viability (S. aureus ATCC 12598; 10 µM) [%] | Average inhibition %, planktonic cells viability (S. aureus ATCC 12598; 10 µM) [%] | Average inhibition %, biofilms viability (S. aureus ATCC 12598; 15 µM) [%] | Average inhibition %, planktonic cells viability (S. aureus ATCC 12598; 15 µM) [%] | Average inhibition %, biofilms viability (S. aureus ATCC 12598; 25 µM) [%] | Average inhibition %, planktonic cells viability (S. aureus ATCC 12598; 25 µM) [%] | Average inhibition %, biofilms viability (S. aureus P2; 5 µM) [%] | Average inhibition %, planktonic cells viability (S. aureus P2; 5 µM) [%] | Average inhibition %, biofilms viability (S. aureus P2; 10 µM) [%] | Average inhibition %, planktonic cells viability (S. aureus P2; 10 µM) [%] | Average inhibition %, biofilms viability (S. aureus P2; 15 µM) [%] | Average inhibition %, planktonic cells viability (S. aureus P2; 15 µM) [%] | Average inhibition %, biofilms viability (S. aureus P2; 25 µM) [%] | Average inhibition %, planktonic cells viability (S. aureus P2; 25 µM) [%] | Aggregation (nephelometry) [1] | CC50 at 24 h ([2]; A549 cells) [µM] | CC50 at 24 h ([2]; HEp-2 cells) [µM] | CC50 at 24 h ([2]; HL-60 cells) [µM] | also measured |
| --- | --- | --- | --- | --- | --- | --- | --- | --- | --- | --- | --- | --- | --- | --- | --- | --- | --- | --- | --- | --- | --- |
| 2-Amino-2-(4-decylbenzyl)propane-1,3-diol [Compound 45] | 83.6 ± 38.2 | 83.4 ± 39.6 | 99.6 ± 0.1 | 99.8 ± 0 | 99.6 ± 0.1 | 99.8 ± 0 | 99.6 ± 0.1 | 99.8 ± 0.1 | 69.6 ± 37.8 | 70 ± 36.1 | 99.6 ± 0 | 99.8 ± 0 | 99.6 ± 0 | 99.7 ± 0.1 | 99.6 ± 0 | 99.6 ± 0.1 | potential aggregation |  |  |  | Average inhibition %, biofilms biomass (S. aureus ATCC 12598; 5 µM): 75.4 ± 28.1%; Average inhibition %, planktonic cells turbidity (S. aureus ATCC 12598; 5 µM): 89.3 ± 24.1%; Average inhibition %, biofilms biomass (S. aureus ATCC 12598; 10 µM): 95.3 ± 0.4%; Average inhibition %, planktonic cells turbidity (S. aureus ATCC 12598; 10 µM): 99.4 ± 0%; Average inhibition %, biofilms biomass (S. aureus ATCC 12598; 15 µM): 94.4 ± 0.3%; Average inhibition %, planktonic cells turbidity (S. aureus ATCC 12598; 15 µM): 99.1 ± 0%; Average inhibition %, biofilms biomass (S. aureus ATCC 12598; 25 µM): 94.9 ± 1%; Average inhibition %, planktonic cells turbidity (S. aureus ATCC 12598; 25 µM): 98.3 ± 0.2%; MIC S. aureus ATCC 12598 (S. aureus ATCC 12598; pre-exposure, 18 h): 5 to 10 µM; Average inhibition %, biofilms biomass (S. aureus P2; 5 µM): 74.6 ± 24.7%; Average inhibition %, planktonic cells turbidity (S. aureus P2; 5 µM): 74.4 ± 34.2%; Average inhibition %, biofilms biomass (S. aureus P2; 10 µM): 97.6 ± 0.3%; Average inhibition %, planktonic cells turbidity (S. aureus P2; 10 µM): 99.4 ± 0.1%; Average inhibition %, biofilms biomass (S. aureus P2; 15 µM): 96.9 ± 1.4%; Average inhibition %, planktonic cells turbidity (S. aureus P2; 15 µM): 99.1 ± 0.1%; Average inhibition %, biofilms biomass (S. aureus P2; 25 µM): 97.6 ± 0.3%; Average inhibition %, planktonic cells turbidity (S. aureus P2; 25 µM): 98.6 ± 0.1%; MIC S. aureus P2 (S. aureus P2; pre-exposure, 18 h): 5 to 10 µM |
| CCCCCCCCc1ccc2cc(CC(N)(CO)CO)ccc2c1 [Compound 79, 2-Amino-2-[(6-octylnaphthalen-2-yl)methyl]propane-1,3-diol] | 65.9 ± 50.1 | 69.3 ± 47.1 | 99.6 ± 0.1 | 99.8 ± 0.1 | 99.5 ± 0 | 99.6 ± 0.1 | 99.5 ± 0.1 | 99.6 ± 0.1 | 49.4 ± 34.5 | 45.3 ± 32.9 | 99.4 ± 0 | 99.6 ± 0 | 99.4 ± 0 | 99.6 ± 0.1 | 99.5 ± 0 | 99.6 ± 0.1 | potential aggregation | > 40 | > 40 | 26.9 ± 1.6 | inhibition at 5 µM (S. aureus ATCC 12598; 5 µM, read-out: Average inhibition %, biofilms biomass): 63.5 ± 41.5%; inhibition at 5 µM (S. aureus ATCC 12598; 5 µM, read-out: Average inhibition %, planktonic cells turbidity): 82.3 ± 26.8%; inhibition at 10 µM (S. aureus ATCC 12598; 10 µM, read-out: Average inhibition %, biofilms biomass): 94.7 ± 0.2%; inhibition at 10 µM (S. aureus ATCC 12598; 10 µM, read-out: Average inhibition %, planktonic cells turbidity): 99.6%; inhibition at 15 µM (S. aureus ATCC 12598; 15 µM, read-out: Average inhibition %, biofilms biomass): 94.6 ± 0.6%; inhibition at 15 µM (S. aureus ATCC 12598; 15 µM, read-out: Average inhibition %, planktonic cells turbidity): 99.4 ± 0.1%; inhibition at 25 µM (S. aureus ATCC 12598; 25 µM, read-out: Average inhibition %, biofilms biomass): 95 ± 1%; inhibition at 25 µM (S. aureus ATCC 12598; 25 µM, read-out: Average inhibition %, planktonic cells turbidity): 99.2 ± 0.3%; MIC (S. aureus ATCC 12598; S. aureus ATCC 12598 and P2, read-out: MIC against the clinical strains of S. aureus): 5 to 10 µM (≈ 1.72 to 3.44 µg/mL); MIC (S. aureus ATCC 12598; pre-exposure, 18 h, read-out: MIC S. aureus ATCC 12598): 5 to 10 µM (≈ 1.72 to 3.44 µg/mL); MIC (S. aureus P2; Staphylococcus aureus, P2, pre-exposure, 18 h): 10 µM (≈ 3.44 µg/mL); inhibition at 5 µM (S. aureus P2; Staphylococcus aureus, 5 µM, read-out: Average inhibition %, biofilms biomass): 63.6 ± 23.6%; inhibition at 5 µM (S. aureus P2; Staphylococcus aureus, 5 µM, read-out: Average inhibition %, planktonic cells turbidity): 45.4 ± 35.4%; inhibition at 10 µM (S. aureus P2; Staphylococcus aureus, 10 µM, read-out: Average inhibition %, biofilms biomass): 95.8 ± 2.2%; inhibition at 10 µM (S. aureus P2; Staphylococcus aureus, 10 µM, read-out: Average inhibition %, planktonic cells turbidity): 99.5%; inhibition at 15 µM (S. aureus P2; Staphylococcus aureus, 15 µM, read-out: Average inhibition %, biofilms biomass): 97.3 ± 0.5%; inhibition at 15 µM (S. aureus P2; Staphylococcus aureus, 15 µM, read-out: Average inhibition %, planktonic cells turbidity): 99.4 ± 0.1%; inhibition at 25 µM (S. aureus P2; Staphylococcus aureus, 25 µM, read-out: Average inhibition %, biofilms biomass): 96.4 ± 1.3%; inhibition at 25 µM (S. aureus P2; Staphylococcus aureus, 25 µM, read-out: Average inhibition %, planktonic cells turbidity): 99.1 ± 0.2% |
| CCCCCCCCc1cccc(CCC(N)(CO)CO)c1 [Compound 43, 2-Amino-2-(3-octylphenethyl)propane-1,3-diol] |  |  |  |  |  |  |  |  |  |  |  |  |  |  |  |  | potential aggregation | > 40 | > 40 | 23.4 ± 3.2 |  |
